How the values were obtained:
A549/ATCC = assay: NCI-60 five-dose SRB assay; assay type: cell-based; conditions: Homo sapiens, NSCL cancer, five-dose test
Description: (§1) The anticancer screening of target compounds over a full panel of 60 human cancer cell lines was carried out using Sulforhodamine B (SRB) assay at the National Cancer Institute (NCI), Bethesda, Maryland, USA, employing the standard protocol.

ACHN = assay: NCI-60 five-dose SRB assay; assay type: cell-based; conditions: Homo sapiens, Renal cancer, five-dose test
Description: as §1

BT-549 = assay: NCI-60 five-dose SRB assay; assay type: cell-based; conditions: Homo sapiens; BT-549, Breast cancer, five-dose test
Description: as §1

CAKI-1 = assay: NCI-60 five-dose SRB assay; assay type: cell-based; conditions: Homo sapiens; CAKI-1, Renal cancer, five-dose test
Description: as §1

COLO 205 = assay: NCI-60 five-dose SRB assay; assay type: cell-based; conditions: Homo sapiens; COLO 205, Colon cancer, five-dose test
Description: as §1

DU-145 = assay: NCI-60 five-dose SRB assay; assay type: cell-based; conditions: Homo sapiens; DU-145, Prostate cancer, five-dose test
Description: as §1

EKVX = assay: NCI-60 five-dose SRB assay; assay type: cell-based; conditions: Homo sapiens, NSCL cancer, five-dose test
Description: as §1

HCC-2998 = assay: NCI-60 five-dose SRB assay; assay type: cell-based; conditions: Homo sapiens; HCC-2998, Colon cancer, five-dose test
Description: as §1

HL-60(TB) = assay: NCI-60 five-dose SRB assay; assay type: cell-based; conditions: Homo sapiens, Leukemia, five-dose test
Description: as §1

HOP-62 = assay: NCI-60 five-dose SRB assay; assay type: cell-based; conditions: Homo sapiens; HOP-62, NSCL cancer, five-dose test
Description: as §1

HOP-92 = assay: NCI-60 five-dose SRB assay; assay type: cell-based; conditions: Homo sapiens; HOP-92, NSCL cancer, five-dose test
Description: as §1

HS 578T = assay: NCI-60 five-dose SRB assay; assay type: cell-based; conditions: Homo sapiens, Breast cancer, five-dose test
Description: as §1

HT29 = assay: NCI-60 five-dose SRB assay; assay type: cell-based; conditions: Homo sapiens, HT-29; HT29, Colon cancer, five-dose test
Description: as §1

IGROV1 = assay: NCI-60 five-dose SRB assay; assay type: cell-based; conditions: Homo sapiens, IGROV-1; IGROV1, Ovarian cancer, five-dose test
Description: as §1

KM12 = assay: NCI-60 five-dose SRB assay; assay type: cell-based; conditions: Homo sapiens; KM12, Colon cancer, five-dose test
Description: as §1

LOX IMVI = assay: NCI-60 five-dose SRB assay; assay type: cell-based; conditions: Homo sapiens, Melanoma, five-dose test
Description: as §1

M14 = assay: NCI-60 five-dose SRB assay; assay type: cell-based; conditions: Homo sapiens; M14, Melanoma, five-dose test
Description: as §1

MALME-3M = assay: NCI-60 five-dose SRB assay; assay type: cell-based; conditions: Homo sapiens, Melanoma, five-dose test
Description: as §1

MDA-MB-435 = assay: NCI-60 five-dose SRB assay; assay type: cell-based; conditions: Homo sapiens; MDA-MB-435, Melanoma, five-dose test
Description: as §1

MOLT-4 = assay: NCI-60 five-dose SRB assay; assay type: cell-based; conditions: Homo sapiens; MOLT-4, Leukemia, five-dose test
Description: as §1

NCI-H23 = assay: NCI-60 five-dose SRB assay; assay type: cell-based; conditions: Homo sapiens; NCI-H23, NSCL cancer, five-dose test
Description: as §1

OVCAR-3 = assay: NCI-60 five-dose SRB assay; assay type: cell-based; conditions: Homo sapiens; OVCAR-3, Ovarian cancer, five-dose test
Description: as §1

OVCAR-4 = assay: NCI-60 five-dose SRB assay; assay type: cell-based; conditions: Homo sapiens; OVCAR-4, Ovarian cancer, five-dose test
Description: as §1

OVCAR-5 = assay: NCI-60 five-dose SRB assay; assay type: cell-based; conditions: Homo sapiens; OVCAR-5, Ovarian cancer, five-dose test
Description: as §1

OVCAR-8 = assay: NCI-60 five-dose SRB assay; assay type: cell-based; conditions: Homo sapiens; OVCAR-8, Ovarian cancer, five-dose test
Description: as §1

RPMI-8226 = assay: NCI-60 five-dose SRB assay; assay type: cell-based; conditions: Homo sapiens; RPMI-8226, Leukemia, five-dose test
Description: as §1

RXF 393 = assay: NCI-60 five-dose SRB assay; assay type: cell-based; conditions: Homo sapiens; RXF 393, Renal cancer, five-dose test
Description: as §1

SF-268 = assay: NCI-60 five-dose SRB assay; assay type: cell-based; conditions: Homo sapiens; SF-268, CNS cancer, five-dose test
Description: as §1

SF-295 = assay: NCI-60 five-dose SRB assay; assay type: cell-based; conditions: Homo sapiens; SF-295, CNS cancer, five-dose test
Description: as §1

SK-OV-3 = assay: NCI-60 five-dose SRB assay; assay type: cell-based; conditions: Homo sapiens; SK-OV-3, Ovarian cancer, five-dose test
Description: as §1

SN12C = assay: NCI-60 five-dose SRB assay; assay type: cell-based; conditions: Homo sapiens, Renal cancer, five-dose test
Description: as §1

SNB-19 = assay: NCI-60 five-dose SRB assay; assay type: cell-based; conditions: Homo sapiens; SNB-19, CNS cancer, five-dose test
Description: as §1

SNB-75 = assay: NCI-60 five-dose SRB assay; assay type: cell-based; conditions: Homo sapiens; SNB-75, CNS cancer, five-dose test
Description: as §1

SW-620 = assay: NCI-60 five-dose SRB assay; assay type: cell-based; conditions: Homo sapiens; SW-620, Colon cancer, five-dose test
Description: as §1

T-47D = assay: NCI-60 five-dose SRB assay; assay type: cell-based; conditions: Homo sapiens, T47D, Breast cancer, five-dose test
Description: as §1

TK-10 = assay: NCI-60 five-dose SRB assay; assay type: cell-based; conditions: Homo sapiens; TK-10, Renal cancer, five-dose test
Description: as §1

U251 = assay: NCI-60 five-dose SRB assay; assay type: cell-based; conditions: Homo sapiens, U-251; U251, CNS cancer, five-dose test
Description: as §1

UACC-257 = assay: NCI-60 five-dose SRB assay; assay type: cell-based; conditions: Homo sapiens; UACC-257, Melanoma, five-dose test
Description: as §1

UACC-62 = assay: NCI-60 five-dose SRB assay; assay type: cell-based; conditions: Homo sapiens; UACC-62, Melanoma, five-dose test
Description: as §1

UO-31 = assay: NCI-60 five-dose SRB assay; assay type: cell-based; conditions: Homo sapiens; UO-31, Renal cancer, five-dose test
Description: as §1

MDA-MB-231/ATCC = assay: cells; conditions: Homo sapiens
Description: as §1

MDA-MB-468 = assay: cells; conditions: Homo sapiens
Description: as §1

PC-3 = assay: cells; conditions: Homo sapiens
Description: as §1

COc1cccc2nc(Nc3ccc(F)c(NC(=O)c4ccc(CN5CCN(C)CC5)c(C(F)(F)F)c4)c3)ccc12 [Compound 15a, N-(2-fluoro-5-((5-methoxyquinolin-2-yl)amino)phenyl)-4-((4-methylpiperazin-1-yl)methyl)-3-(trifluoromethyl)benzamide]
GI50 (A549/ATCC): 12.2 µM
GI50 (ACHN): 16.5 µM
GI50 (BT-549): 10.5 µM
GI50 (CAKI-1): 11.5 µM
GI50 (COLO 205): 17.2 µM
GI50 (DU-145): 12.9 µM
GI50 (EKVX): 14.7 µM
GI50 (HCC-2998): 18.8 µM
GI50 (HL-60(TB)): 6.52 µM
GI50 (HOP-62): 14.5 µM
GI50 (HOP-92): 6.64 µM
GI50 (HS 578T): 14.1 µM
GI50 (HT29): 3.61 µM
GI50 (IGROV1): 14.5 µM
GI50 (KM12): 15.4 µM
GI50 (LOX IMVI): 13.8 µM
GI50 (M14): 13.1 µM
GI50 (MALME-3M): 11.7 µM
GI50 (MDA-MB-435): 15.1 µM
GI50 (MOLT-4): 4.1 µM
GI50 (NCI-H23): 15.5 µM
GI50 (OVCAR-3): 14.4 µM
GI50 (OVCAR-4): 13.9 µM
GI50 (OVCAR-5): 16.1 µM
GI50 (OVCAR-8): 15.8 µM
GI50 (RPMI-8226): 9.3 µM
GI50 (RXF 393): 3.71 µM
GI50 (SF-268): 11.1 µM
GI50 (SF-295): 17.1 µM
GI50 (SK-OV-3): 15.7 µM
GI50 (SN12C): 13.4 µM
GI50 (SNB-19): 17.2 µM
GI50 (SNB-75): 9.09 µM
GI50 (SW-620): 16.9 µM
GI50 (T-47D): 14.8 µM
GI50 (TK-10): 16.4 µM
GI50 (U251): 13.4 µM
GI50 (UACC-257): 16.3 µM
GI50 (UACC-62): 16.2 µM
GI50 (UO-31): 12.6 µM
GI50 (MDA-MB-231/ATCC): 12.1 µM
GI50 (MDA-MB-468): 4.79 µM
GI50 (PC-3): 12 µM

CCN1CCN(Cc2ccc(C(=O)Nc3cccc(Nc4ccc5c(OC)cccc5n4)c3)cc2C(F)(F)F)CC1 [Compound 14c, 4-((4-ethylpiperazin-1-yl)methyl)-N-(3-((5-methoxyquinolin-2-yl)amino)phenyl)-3-(trifluoromethyl)benzamide]
GI50 (A549/ATCC): 2.5 µM
GI50 (ACHN): 1.85 µM
GI50 (BT-549): 5.35 µM
GI50 (CAKI-1): 1.46 µM
GI50 (COLO 205): 1.74 µM
GI50 (DU-145): 2.55 µM
GI50 (EKVX): 4.06 µM
GI50 (HCC-2998): 1.59 µM
GI50 (HL-60(TB)): 1.57 µM
GI50 (HOP-62): 3.67 µM
GI50 (HOP-92): 1.58 µM
GI50 (HS 578T): 1.96 µM
GI50 (HT29): 1.76 µM
GI50 (IGROV1): 3.09 µM
GI50 (KM12): 2.2 µM
GI50 (LOX IMVI): 1.45 µM
GI50 (M14): 1.47 µM
GI50 (MALME-3M): 1.44 µM
GI50 (MDA-MB-435): 1.36 µM
GI50 (MOLT-4): 1.23 µM
GI50 (NCI-H23): 2.37 µM
GI50 (OVCAR-3): 1.8 µM
GI50 (OVCAR-4): 2.89 µM
GI50 (OVCAR-5): 3.28 µM
GI50 (OVCAR-8): 6.78 µM
GI50 (RPMI-8226): 2.24 µM
GI50 (RXF 393): 1.63 µM
GI50 (SF-268): 2.17 µM
GI50 (SF-295): 1.52 µM
GI50 (SK-OV-3): 12.6 µM
GI50 (SN12C): 3.62 µM
GI50 (SNB-19): 1.65 µM
GI50 (SNB-75): 1.2 µM
GI50 (SW-620): 1.45 µM
GI50 (T-47D): 2.11 µM
GI50 (TK-10): 8.67 µM
GI50 (U251): 1.69 µM
GI50 (UACC-257): 1.51 µM
GI50 (UACC-62): 1.53 µM
GI50 (UO-31): 2.33 µM
GI50 (MDA-MB-231/ATCC): 1.54 µM
GI50 (MDA-MB-468): 1.6 µM
GI50 (PC-3): 2.14 µM

Reference: publication PMC9963398, “Discovery of New Quinolone-Based Diarylamides as Potent B-RAF^V600E/C-RAF Kinase Inhibitors Endowed with Promising In Vitro Anticancer Activity” (International Journal of Molecular Sciences, 2023)
